In patent publication US20250295678A1, “ULTRA LOW DOSAGE ZOLEDRONIC ACID FOR TREATMENT OF RETINAL DISEASE” (The Regents of the University of California, priority 2022, published 2025):
Entries after “also recorded” stand apart in the source; their conditions may differ.

What was measured:
[1] = target: T1, acid sphingomyelinase (ASM) (Homo sapiens, UniProt P17405); conditions: functional ASM inhibitor, prior publication; cited from earlier work
T1 sequence (P17405 47-631): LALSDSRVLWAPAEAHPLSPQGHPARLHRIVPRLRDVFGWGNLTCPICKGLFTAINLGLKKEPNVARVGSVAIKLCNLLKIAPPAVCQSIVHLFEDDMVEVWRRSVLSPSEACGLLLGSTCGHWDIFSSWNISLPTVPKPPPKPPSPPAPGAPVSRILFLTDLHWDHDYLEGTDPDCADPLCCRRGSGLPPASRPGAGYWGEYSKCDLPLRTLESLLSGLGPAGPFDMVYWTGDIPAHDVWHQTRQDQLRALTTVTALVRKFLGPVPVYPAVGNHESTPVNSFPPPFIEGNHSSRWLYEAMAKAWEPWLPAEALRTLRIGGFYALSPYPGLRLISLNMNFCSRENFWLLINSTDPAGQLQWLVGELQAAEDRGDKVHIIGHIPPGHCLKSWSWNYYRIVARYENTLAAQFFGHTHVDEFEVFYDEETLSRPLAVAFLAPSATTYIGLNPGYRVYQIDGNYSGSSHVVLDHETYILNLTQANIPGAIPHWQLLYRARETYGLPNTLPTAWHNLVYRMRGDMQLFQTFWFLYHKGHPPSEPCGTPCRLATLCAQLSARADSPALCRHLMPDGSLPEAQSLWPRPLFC

[2] = test system: polarized primary RPE cultures; assay: Complement-mediated mitochondrial fragmentation in polarized primary RPE monolayers (A2E + NHS, MitoTracker live imaging); format: cell-based, porcine
Method: Highly differentiated polarized primary RPE cultures were established from freshly harvested porcine eyes as described (Toops et al., 2014). To induce complement-mediate mitochondrial injury, RPE monolayers were treated with the lipofuscin bisretinoid A2E, which compromises mechanisms that protect the RPE from complement activation (Tan et al., 2016). RPE cells were exposed to active complement components (10% normal human serum, NHS, for 10 min at 37° C.) to induce complement activation on the RPE cell surface. […] After NHS exposure, cells were treated with 1 μM zoledronic acid for 3 h. RPE mitochondria were labeled with MitoTracker Deep Red and cells were imaged live on a Nikon spinning disc confocal microscopy as we have described (Tan et al., 2016; La Cunza et al., 2021). Mitochondrial surfaces were reconstructed from 4-dimensional images using Imaris (Bitplane).
Highly differentiated polarized primary RPE cultures were established from freshly harvested porcine eyes as described (Toops et al., 2014). To induce complement-mediate mitochondrial injury, RPE monolayers were treated with the lipofuscin bisretinoid A2E, which compromises mechanisms that protect the RPE from complement activation (Tan et al., 2016). RPE cells were exposed to active complement components (10% normal human serum, NHS, for 10 min at 37° C.) to induce complement activation on the RPE cell surface. […]

[3] = test system: primary RPE cultures; assay: Ceramide in primary RPE cultures treated with adiporon; format: cell-based, porcine; conditions: 0.01-1 μM, 3 h

Row | SMILES | ceramide accumulation (prior work) [1] | complement-mediated mitochondrial fragmentation in the RPE in vitro ([2]; 1 μM for 3 h after NHS exposure (FIG. 5, FIG. 9)) | complement-induced mitochondrial injury in primary RPE cultures ([2]; 0.01-1 μM, 3 h (0.01 μM data not shown)) | ceramide in primary RPE cultures [3]
1 | CNCCCN1c2ccccc2CCc2ccccc21 [desipramine] | decreases ceramide alone; also recorded: can effectively inhibit ceramide accumulation |  |  | 
2 | O=C(COc1ccc(C(=O)c2ccccc2)cc1)NC1CCN(Cc2ccccc2)CC1 [adiporon] |  | prevented complement-mediated mitochondrial fragmentation | preventing complement-induced mitochondrial injury | effective in decreasing ceramide
